Assays:
[1] = Encapsulation efficiency (% EE), ribogreen; type: physicochemical; conditions: nanoparticles, compound:DSPC:cholesterol:PEG 2 50:10:38:2 mol %
Description: (§1) The efficiency of encapsulation of a therapeutic and/or prophylactic describes the amount of therapeutic and/or prophylactic that is encapsulated or otherwise associated with a lipid nanoparticle (e.g., an empty LNP or a loaded LNP) after preparation, relative to the initial amount provided. The encapsulation efficiency is desirably high (e.g., close to 100%). The encapsulation efficiency may be measured, for example, by comparing the amount of therapeutic and/or prophylactic in a solution containing the lipid nanoparticle (e.g., an empty LNP or a loaded LNP) before and after breaking up the lipid nanoparticle (e.g., an empty LNP or a loaded LNP) with one or more organic solvents or detergents. Fluorescence may be used to measure the amount of free therapeutic and/or prophylactic (e.g., RNA) in a solution.
(§2) Nanoparticle compositions including a therapeutic and/or prophylactic can be optimized according to the selection of a compound according to Formula (I), (I-1), (A), (A-1), (A-1a), or (A-1b), the selection of additional lipids, the amount of each lipid in the lipid component, and the wt:wt ratio of the lipid component to the therapeutic and/or prophylactic. Nanoparticle compositions including DSPC as a phospholipid, cholesterol as a structural lipid, PEG 2 as a PEG lipid, and a compound according to Formula (I), (I-1), (A), (A-1), (A-1a), or (A-1b) were prepared. The ratios of the lipids were 50:10:38:2 mol % for the lipid according to Formula (I), (I-1), (A), (A-1), (A-1a), or (A-1b):DSPC:cholesterol:PEG 2. […]

[2] = Heparin-sepharose binding of nanoparticles
[3] = Size and polydispersity index of nanoparticles comprising compounds of the disclosure; type: physicochemical; conditions: compound:DSPC:cholesterol:PEG 2 50:10:38:2 mol %
Description: Lipid nanoparticles (e.g., empty LNPs or loaded LNPs) may be characterized by a variety of methods. For example, microscopy (e.g., transmission electron microscopy or scanning electron microscopy) may be used to examine the morphology and size distribution of a nanoparticle composition. Dynamic light scattering or potentiometry (e.g., potentiometric titrations) may be used to measure zeta potentials. Dynamic light scattering may also be utilized to determine particle sizes. Instruments such as the Zetasizer Nano ZS (Malvern Instruments Ltd, Malvern, Worcestershire, UK) may also be used to measure multiple characteristics of a nanoparticle composition, such as particle size, polydispersity index, and zeta potential.
as §2

[4] = Encapsulation efficiency (% EE), ribostar; type: physicochemical; conditions: nanoparticles, compound:DSPC:cholesterol:PEG 2 50:10:38:2 mol %
Description: as §1, with “solution. For the lipid nanoparticles (e.g., empty LNPs or loaded LNPs) described herein, the encapsulation efficiency of a therapeutic and/or prophylactic may be at least 50%, for example 50%, 55%, 60%, 65%, 70%, 75%, 80%, 85%, 90%, 91%, 92%, 93%, 94%, 95%, 96%, 97%, 98%, 99%, or 100%. In some embodiments, the encapsulation efficiency may be at least 80%. In certain embodiments, the encapsulation efficiency may be at least 90%. In some embodiments, the encapsulation efficiency of the therapeutic and/or prophylactic agent is between 80% and 100%.” for “solution.”
Nanoparticle compositions including a therapeutic and/or prophylactic can be optimized according to the selection of a compound according to Formula (I), (I-1), (A), (A-1), (A-1a), or (A-1b), the selection of additional lipids, the amount of each lipid in the lipid component, and the wt:wt ratio of the lipid component to the therapeutic and/or prophylactic. Nanoparticle compositions including DSPC as a phospholipid, cholesterol as a structural lipid, PEG 2 as a PEG lipid, and a compound according to Formula (I), (I-1), (A), (A-1), (A-1a), or (A-1b) were prepared. The ratios of the lipids were 50:10:38:2 mol % for the lipid according to Formula (I), (I-1), (A), (A-1), (A-1a), or (A-1b):DSPC:cholesterol:PEG 2. Tables 2a, 2b, and 3-5 summarize the characteristics of the formulations.
Table 4 summarizes the surface hydrophobicity of nanoparticles comprising compounds of the disclosure as determined by Generalized Polarization by Laurdan (GPL). Laurdan, a fluorescent aminonaphthalene ketone lipid, was post-inserted into the nanoparticle surface and the fluorescence spectrum of Laurdan was collected to determine the normalized Generalized Polarization (N-GP). Higher N-GP indicates a less polar surface.

[5] = Apparent LNP pKa by 2-(p-toluidino)-6-napthalene sulfonic acid (TNS) assay; type: physicochemical; conditions: pH at half of maximum fluorescence
serum protein ApoE = test: ApoE binding affinity of nanoparticles (bead binding, flow cytometry)
Protocol: The ApoE binding affinity, i.e., the affinity of binding between nanoparticles comprising compounds of the disclosure and the serum protein ApoE, was determined by binding the nanoparticles to beads, then incubating them with known quantities of […]. The quantity of protein bound to the nanoparticle was then determined by flow cytometry.

hEPO mRNA = test: hEPO expression in CD1-mice after intravenous administration of nanoparticles; type: in vivo; conditions: 6 h after intravenous administration, mRNA dose 0.5 mg/kg, N:P 3.4, compound:DSPC:cholesterol:PEG 2 50:10:38:2
Protocol: The expression of hEPO mRNA in CD1-mice was measured 6 h after intravenous administration of nanoparticles comprising a compound of the disclosure, DSPC, cholesterol, and PEG 2 in a ratio of 50:10:38:2. […] Each composition was dosed to 8 animals at an mRNA dose of 0.5 mg/kg.

mRNA = mRNA integrity in nanoparticles by RP-IP HPLC (UV 260 nm); type: physicochemical
Protocol: Integrity of mRNA comprised in nanoparticles of the disclosure, i.e., the percentages of intact mRNA, mRNA adducts, and mRNA hydrolysis products, […] (Reverse-Phase Ion-Pairing HPLC) using UV detection at 260 nm. Total purity and impurities are calculated as percent peak area.

[6] = Surface hydrophobicity by Generalized Polarization by Laurdan (GPL); type: physicochemical; conditions: normalized Generalized Polarization by Laurdan; higher N-GP = less polar surface
Description: Nanoparticle compositions including a therapeutic and/or prophylactic can be optimized according to the selection of a compound according to Formula (I), (I-1), (A), (A-1), (A-1a), or (A-1b), the selection of additional lipids, the amount of each lipid in the lipid component, and the wt:wt ratio of the lipid component to the therapeutic and/or prophylactic. Nanoparticle compositions including DSPC as a phospholipid, cholesterol as a structural lipid, PEG 2 as a PEG lipid, and a compound according to Formula (I), (I-1), (A), (A-1), (A-1a), or (A-1b) were prepared. The ratios of the lipids were 50:10:38:2 mol % for the lipid according to Formula (I), (I-1), (A), (A-1), (A-1a), or (A-1b):DSPC:cholesterol:PEG 2.
Laurdan, a fluorescent aminonaphthalene ketone lipid, was post-inserted into the nanoparticle surface and the fluorescence spectrum of Laurdan was collected to determine the normalized Generalized Polarization (N-GP). Higher N-GP indicates a less polar surface.

[7] = mRNA integrity after 2 weeks at 25° C., percent peak area
[8] = mRNA integrity at t = 0, percent peak area

## CCCCCCCCC(CC)OC(=O)CCCCCCCN(CCCCCCCC(=O)OC(CCCCCCCC)CCCCCCCC)CCCNc1n[s+]([O-])nc1NC (stereo not shown) [Compound 1, Heptadecan-9-yl 8-((3-((4-(methylamino)-1-oxido-1,2,5-thiadiazol-3-yl)amino)propyl)(8-oxo-8-(undecan-3-yloxy)octyl)amino)octanoate]
[1]
  % EE (ribogreen): 97.5%
[2]
  Relative % Area Bound by LNP: 0%
[3]
  PDI: 0.131
  Size (nm): 67.6 nm
[4]
  % EE (ribostar): 61.4%
[5]
  LogIC50 (pKa): 6.94
Serum protein ApoE
  Median Fluorescence Intensity, PE: 182846
hEPO mRNA
  Avg. [hEPO] mIU/mL: 6.38E+05 mIU/mL

## CCCCCCCCC(CC)OC(=O)CCCCCCCN(CCCCCCCC(=O)OC(CCCCCCCC)CCCCCCCC)CCCNC1=NC(=O)N(C)C1=O (stereo not shown) [Compound 9, Heptadecan-9-yl 8-((3-((1-methyl-2,5-dioxo-2,5-dihydro-1H-imidazol-4-yl)amino)propyl)(8-oxo-8-(undecan-3-yloxy)octyl)amino)octanoate]
[1]
  % EE (ribogreen): 92.9%
[2]
  Relative % Area Bound by LNP: 0%
[3]
  PDI: 0.154
  Size (nm): 77.1 nm
[4]
  % EE (ribostar): 68.9%
Serum protein ApoE
  Median Fluorescence Intensity, PE: 56008
hEPO mRNA
  Avg. [hEPO] mIU/mL: 5.32E+05 mIU/mL

## CCCCCCCCC(CC)OC(=O)CCCCCCCN(CCCCCCCC(=O)OC(CCCCCCCC)CCCCCCCC)CCCNc1ncccc1NC (stereo not shown) [Compound 34, Heptadecan-9-yl 8-((3-((3-(methylamino)pyridin-2-yl)amino)propyl)(8-oxo-8-(undecan-3-yloxy)octyl)amino)octanoate]
[1]
  % EE (ribogreen): 75.4%
[2]
  Relative % Area Bound by LNP: 2.90%
[3]
  PDI: 0.211
  Size (nm): 108.2 nm
[4]
  % EE (ribostar): 41.6%
mRNA; [7]
  Adduct: 7.9%
  Hydrolysis Product: 51.4%
  Intact: 40.8%
mRNA; [8]
  Adduct: 3.8%
  Hydrolysis Product: 36.4%
  Intact: 59.8%
[5]
  LogIC50 (pKa): 6.87
Serum protein ApoE
  Median Fluorescence Intensity, PE: 3133
[6]
  Average N-GP: 1.001
hEPO mRNA
  Avg. [hEPO] mIU/mL: 8.06E+05 mIU/mL

## CCCCCCCCC(CC)OC(=O)CCCCCCCN(CCCCCCCC(=O)OC(CCCCCCCC)CCCCCCCC)CCCNC(=O)C1(C)CC1 (stereo not shown) [Compound 60, Heptadecan-9-yl 8-((3-(1-methylcyclopropane-1-carboxamido)propyl)(8-oxo-8-(undecan-3-yloxy)octyl)amino)octanoate]
[1]
  % EE (ribogreen): 41.5%
[2]
  Relative % Area Bound by LNP: 5.65%
[3]
  PDI: 0.192
  Size (nm): 90.8 nm
[4]
  % EE (ribostar): 20.5%
mRNA; [7]
  Adduct: 8.5%
  Hydrolysis Product: 77.2%
  Intact: 14.3%
mRNA; [8]
  Adduct: 6.0%
  Hydrolysis Product: 51.8%
  Intact: 42.2%
[5]
  LogIC50 (pKa): 6.69
Serum protein ApoE
  Median Fluorescence Intensity, PE: 41093
[6]
  Average N-GP: 1.055
hEPO mRNA
  Avg. [hEPO] mIU/mL: 7.34E+05 mIU/mL

## CCCCCCCCC(CC)OC(=O)CCCCCCCN(CCCCCCCC(=O)OC(CCCCCCCC)CCCCCCCC)CCCNS(=O)(=O)CC (stereo not shown) [Compound 66, Heptadecan-9-yl 8-((3-(ethylsulfonamido)propyl)(8-oxo-8-(undecan-3-yloxy)octyl)amino)octanoate]
[1]
  % EE (ribogreen): 91.8%
[2]
  Relative % Area Bound by LNP: 3.54%
[3]
  PDI: 0.125
  Size (nm): 70.1 nm
[4]
  % EE (ribostar): 59.1%
mRNA; [7]
  Adduct: 27.2%
  Hydrolysis Product: 32.9%
  Intact: 39.9%
mRNA; [8]
  Adduct: 13.1%
  Hydrolysis Product: 32.9%
  Intact: 54.0%
[5]
  LogIC50 (pKa): 6.64
Serum protein ApoE
  Median Fluorescence Intensity, PE: 112648
[6]
  Average N-GP: 0.837
hEPO mRNA
  Avg. [hEPO] mIU/mL: 1.57E+06 mIU/mL

## CCCCCCCCC(CC)OC(=O)CCCCCCCN(CCCCCCCC(=O)OC(CCCCCCCC)CCCCCCCC)CCCNS(=O)(=O)c1ncc[nH]1 (stereo not shown) [Compound 69, Heptadecan-9-yl 8-((3-(1H-imidazole-2-sulfonamido)propyl)(8-oxo-8-(undecan-3-yloxy)octyl)amino)octanoate]
[1]
  % EE (ribogreen): 97%
[2]
  Relative % Area Bound by LNP: 0.93%
[3]
  PDI: 0.108
  Size (nm): 66.8 nm
[5]
  LogIC50 (pKa): 6.56
[6]
  Average N-GP: 0.812
hEPO mRNA
  Avg. [hEPO] mIU/mL: 2.61E+05 mIU/mL

From US20230000773A1, “NOVEL HEADGROUP LIPID COMPOUNDS AND COMPOSITIONS FOR INTRACELLULAR DELIVERY OF THERAPEUTIC AGENTS” (ModernaTX, Inc., priority 2019, published 2023)
